# Data from PMC9413440, “An Iterative Approach Guides Discovery of the FabI Inhibitor Fabimycin, a Late-Stage Antibiotic Candidate with In Vivo Efficacy against Drug-Resistant Gram-Negative Infections” (ACS Central Science, 2022).
# Legend:
# A. baumannii AR-0088 = experiment: Dose-ranging and efficacy, neutropenic thigh infection; type: in vivo, mouse; conditions: neutropenic BALB/c mice, burden at 26 h
# Excerpt: Neutropenic thigh infection model
# Acclimated CD-1 mice (see above) were rendered neutropenic prior to the experiment via cyclophosphamide treatment. […]
# Dose-ranging and efficacy of fabimycin
# The protocol to assess fabimycin’s efficacy in A. baumannii-infected mice (strain: AR-0088) was approved by the IACUC at Pharmacology Discovery Services, Taiwan, Ltd. (protocol number: IM003-01282019). In this study, neutropenic female BALB/c mice 7-8 weeks in age from BioLASCO Taiwan (AAALAC-certified Charles River Licensee) weighing 18 ± 2 grams were used. The mice were rendered neutropenic and inoculated in the same method as used for the pharmacokinetic study. Fabimycin was formulated in 17% Cremophor EL/3% SBE-β-CD and IV administered. Colistin was formulated in 0.9% NaCl and subcutaneously (SC) administered.
# 5 or 30 minutes after dosing with respect to IV and SC route to detect acute toxicity, which was recorded and reported, […]
# Animals were euthanized using compressed CO2 gas in a CO2 gas chamber. […] Bacterial burden in the tissue homogenates was determined by performing 10-fold serial dilutions and plating 0.1 mL of each to nutrient agar plates. Colonies were counted after 18 - 24 h incubation. The colony-forming unit value per tissue (CFU/thigh) was calculated. […]
# IM011-12282020). […] Tissues were collected and pathogen burden evaluated by dilution plating technique on nutrient agar plates.
# human red blood cells = experiment: Human red blood cell hemolysis; type: cell-based; conditions: 200 μM; 2 hours at 37 °C
# Procedure: drug is tested in duplicate. Compounds were diluted from 10mM DMSO stocks to 5 µM in mouse or human plasma (BioreclamationIVT, Baltimore, MD). The dialysis plate (Rapid Equilibrium Dialysis (RED) device; Thermo Scientific, Waltham, MA) was prepared by adding pH 7.4 phosphate buffer to one chamber of the RED device and dosing solution to the other chamber. The plate was sealed with an adhesive tape and incubated at 37 °C while shaking for 4 hours. Equal volumes of post-dialysis samples were removed from both the plasma and the buffer chambers into separate microcentrifuge tubes, and equal volumes (100µL) of fresh phosphate buffer and plasma were added to the tubes, respectively. […] Percentage binding is determined using the following equation: Binding % = (Concentration of test compound in plasma at equilibrium (Cpe) – Concentration of test compound in buffer at equilibrium (Cb)) / Cpe x 100. […]
# Next, 10 µL of washed erythrocyte suspension was added to each tube and sealed. […] Absorbance was measured at 540 nm. […]
# from Charles River were used. […] No additional randomization was used to allocate the experimental groups; blinding was not performed for subsequent quantitation.
# The MTD of a single dosage of a given compound was determined before evaluating the MTD of multiple dosages. […]
# weeks (single dose). The single-dose MTDs were determined first. […]
structure (smiles),measurement,setting,value
Cc1c(CN(C)C(=O)/C=C/c2cnc3c(c2)CC[C@H](N)C(=O)N3)oc2ccccc12 [fabimycin],reduction of bacterial burden,"A. baumannii AR-0088; 75 mg/kg IV four times a day, NDM-1 containing strain",~2 log(CFU/thigh)
same,dose at which significant dose-dependent responses begin,"A. baumannii AR-0088; IV four times a day, doses 1.25–75 mg/kg",30 mg/kg
same,lysis of human red blood cells,human red blood cells,nonhemolytic
